“And” between values parts separate entries of the source, which are not always exact repeats. Equal entries are not always repeated. Toxic doses and inconclusive results are not listed. Cut-off read from the data, not from the text of the source: active = T/C of 150% or more; inactive = T/C below 125%.
Test system: L1210 leukemia ip in BDF1 mice, survival T/C
Test: NCI In Vivo Anticancer Drug Screen. Data for tumor model L1210 Leukemia (intraperitoneal) in B6D2F1 (BDF1) mice
Conditions: endpoint: mean survival time, higher = longer survival
How it was run: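 Antitumor effect is assessed in tumor-bearing animals. Survival in the compound arm is compared with a vehicle-dosed control arm and expressed as their quotient.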

[1] = dose: 100.0 mg/kg/injection, schedule: Q04DX002 (ip), vehicle: saline with Tween-80
[2] = dose: 100.0 mg/kg/injection, schedule: Q01DX001 (ip), vehicle: saline with Tween-80
[3] = dose: 100.0 mg/kg/injection, schedule: Q01DX009 (ip), vehicle: saline with Tween-80
[4] = dose: 200.0 mg/kg/injection, schedule: Q01DX001 (ip), vehicle: saline with Tween-80
[5] = dose: 200.0 mg/kg/injection, schedule: Q01DX009 (ip), vehicle: saline with Tween-80
[6] = dose: 400.0 mg/kg/injection, schedule: Q01DX001 (ip), vehicle: saline with Tween-80
[7] = dose: 400.0 mg/kg/injection, schedule: Q01DX009 (ip), vehicle: saline with Tween-80
[8] = dose: 100.0 mg/kg/injection, schedule: Q01DX001 (ip), vehicle: Klucel (hydroxypropylcellulose) (HPC)
[9] = dose: 200.0 mg/kg/injection, schedule: Q01DX001 (ip), vehicle: Klucel (hydroxypropylcellulose) (HPC)
[10] = dose: 400.0 mg/kg/injection, schedule: Q01DX001 (ip), vehicle: Klucel (hydroxypropylcellulose) (HPC)
[11] = dose: 100.0 mg/kg/injection, schedule: Q01DX009 (ip), vehicle: Klucel (hydroxypropylcellulose) (HPC)
[12] = dose: 100.0 mg/kg/injection, schedule: Q04DX002 (ip), vehicle: Klucel (hydroxypropylcellulose) (HPC)
[13] = dose: 100.0 mg/kg/injection, schedule: Q04DX003 (ip), vehicle: Klucel (hydroxypropylcellulose) (HPC)
[14] = dose: 200.0 mg/kg/injection, schedule: Q01DX009 (ip), vehicle: Klucel (hydroxypropylcellulose) (HPC)
[15] = dose: 200.0 mg/kg/injection, schedule: Q04DX002 (ip), vehicle: Klucel (hydroxypropylcellulose) (HPC)
[16] = dose: 200.0 mg/kg/injection, schedule: Q04DX003 (ip), vehicle: Klucel (hydroxypropylcellulose) (HPC)
[17] = dose: 400.0 mg/kg/injection, schedule: Q01DX009 (ip), vehicle: Klucel (hydroxypropylcellulose) (HPC)
[18] = dose: 400.0 mg/kg/injection, schedule: Q04DX003 (ip), vehicle: Klucel (hydroxypropylcellulose) (HPC)
[19] = dose: 100.0 mg/kg/injection, schedule: Q04DX003 (ip), vehicle: saline with Tween-80
[20] = dose: 200.0 mg/kg/injection, schedule: Q04DX003 (ip), vehicle: saline with Tween-80
[21] = dose: 400.0 mg/kg/injection, schedule: Q04DX003 (ip), vehicle: saline with Tween-80
[22] = dose: 100.0 mg/kg/injection, schedule: Q01DX001 (ip), vehicle: carboxymethylcellulose (CMC)
[23] = dose: 200.0 mg/kg/injection, schedule: Q01DX001 (ip), vehicle: carboxymethylcellulose (CMC)
[24] = dose: 400.0 mg/kg/injection, schedule: Q01DX001 (ip), vehicle: carboxymethylcellulose (CMC)

Measured: T/C

O=S(=O)(O)Nc1cccc(Cl)c1
inactive: [1] 100 % of control | dose: 200.0 mg/kg/injection, schedule: Q04DX002 (ip), vehicle: saline with Tween-80 111 % of control | dose: 400.0 mg/kg/injection, schedule: Q04DX002 (ip), vehicle: saline with Tween-80 88 % of control

CCC(=O)c1ccc(OCC(O)CN2CCN(c3ccccc3Cl)CC2)cc1 (stereo not given)
inactive: [2] 101 % of control | [3] 95 % of control | [4] 104 % of control | [5] 95 % of control | [6] 102 % of control | [7] 88 % of control

COc1ccccc1C(Cc1ccc(N2C(N)=NC(N)=NC2(C)C)cc1)C(=O)Nc1ccc(S(=O)(=O)F)cc1 (stereo not given)
inactive: [8] 101 % of control | [9] 101 % of control | [10] 99 % of control

Cc1cc(OC(=O)Nc2cc(Cl)ccc2C)c(C(C)C)cc1Cl
inactive: [8] 90 % of control | [11] 102 % of control and 88 % of control | [12] 96 % of control | [13] 103 % of control | [9] 91 % of control | [14] 97 % of control | [15] 94 % of control | [16] 94 % of control | [10] 88 % of control | [17] 94 % of control and 86 % of control | dose: 400.0 mg/kg/injection, schedule: Q04DX002 (ip), vehicle: Klucel (hydroxypropylcellulose) (HPC) 91 % of control | [18] 96 % of control

O=C1CCN(C2(c3ccccc3)CCCCC2)CC1
inactive: dose: 100.0 mg/kg/injection, schedule: Q04DX002 (ip), vehicle: saline 92 % of control | dose: 200.0 mg/kg/injection, schedule: Q04DX002 (ip), vehicle: saline 103 % of control | dose: 400.0 mg/kg/injection, schedule: Q04DX002 (ip), vehicle: saline 97 % of control

c1ccc2cc(SSc3ccc4ccccc4c3)ccc2c1
inactive: [13] 95 % of control | [16] 89 % of control | [18] 86 % of control

COc1ccc(NC(=O)Nc2ccccc2OC)cc1
inactive: [3] 98 % of control | [19] 105 % of control | [5] 101 % of control | [20] 97 % of control | [7] 98 % of control | [21] 103 % of control

COc1cc(CCNC(=O)Cc2ccc(OCc3ccccc3)c(OC)c2)ccc1OCc1ccccc1
inactive: [3] 89 % of control | [5] 101 % of control | [7] 94 % of control

COc1ccc(NC(=O)Oc2ccc(Cl)c(C)c2)cc1
inactive: [19] 93 % of control | [20] 90 % of control | [21] 88 % of control

COc1ccc2c3c1OC1C4(OC)CCC5(c6c(O)ccc(O)c64)C(C2)N(C)CCC315 (stereo not given)
inactive: dose: 100.0 mg/kg/injection, schedule: Q01DX001 (ip), vehicle: saline 86 % of control | dose: 200.0 mg/kg/injection, schedule: Q01DX001 (ip), vehicle: saline 96 % of control | dose: 400.0 mg/kg/injection, schedule: Q01DX001 (ip), vehicle: saline 94 % of control

CCN(C(=S)Nc1cccc2ccccc12)c1ccccc1
inactive: [11] 100 % of control | [14] 96 % of control | [17] 92 % of control

O=NN1C(=O)C2CC3CC(C2)CC1C3
inactive: dose: 3.12 mg/kg/injection, schedule: Q01DX009 (ip), vehicle: saline with Tween-80 91 % of control | dose: 6.25 mg/kg/injection, schedule: Q01DX009 (ip), vehicle: saline with Tween-80 107 % of control | dose: 12.5 mg/kg/injection, schedule: Q01DX009 (ip), vehicle: saline with Tween-80 96 % of control

O=[N+]([O-])c1ccn(Cc2ccccc2)c1
inactive: [22] 97 % of control | [23] 88 % of control | [24] 92 % of control

O=C(O)c1ccc(NCc2cccc(N=Cc3ccccc3)c2)cc1
inactive: [2] 93 % of control | [4] 93 % of control | [6] 103 % of control

O=C(c1cccc([N+](=O)[O-])c1)c1sc2ccccc2c1O
inactive: dose: 50.0 mg/kg/injection, schedule: Q04DX002 (ip), vehicle: Klucel (hydroxypropylcellulose) (HPC) 90 % of control | [12] 93 % of control | [15] 88 % of control

CC(C)(C)S(=O)(=O)C(C)(C)C
inactive: [3] 93 % of control | [5] 90 % of control | [7] 88 % of control

CC1(O)CSC(C)(O)CS1 (stereo not given)
inactive: dose: 50.0 mg/kg/injection, schedule: Q04DX002 (ip), vehicle: saline with Tween-80 98 % of control | [1] 88 % of control

C[CH2][Sn]([CH2]C)([O]S(C)(=O)=O)[O]S(C)(=O)=O
inactive: dose: 0.78 mg/kg/injection, schedule: Q01DX009 (ip), vehicle: saline 95 % of control | dose: 1.56 mg/kg/injection, schedule: Q01DX009 (ip), vehicle: saline 98 % of control | dose: 3.12 mg/kg/injection, schedule: Q01DX009 (ip), vehicle: saline 106 % of control | dose: 6.25 mg/kg/injection, schedule: Q01DX009 (ip), vehicle: saline 116 % of control | dose: 12.5 mg/kg/injection, schedule: Q01DX009 (ip), vehicle: saline 102 % of control

CCCC(=O)C(C)C(=O)C(F)(F)F.CCCC(=O)C(C)C(=O)C(F)(F)F.CCCC(=O)C(C)C(=O)C(F)(F)F.[Er] (stereo not given)
inactive: [11] 116 % of control | [13] 98 % of control | [14] 102 % of control | [16] 94 % of control | [17] 113 % of control | [18] 94 % of control

CCOC(=O)NC#N (tested in a mixture with another compound)
inactive: dose: 10.0 mg/kg/injection, schedule: Q01DX001 (ip), vehicle: saline 98 % of control | dose: 20.0 mg/kg/injection, schedule: Q01DX001 (ip), vehicle: saline 102 % of control | dose: 40.0 mg/kg/injection, schedule: Q01DX001 (ip), vehicle: saline 102 % of control

CCOC(=O)N1CCC(=C(C#N)c2ccccc2)CC1
inactive: [13] 92 % of control | [16] 92 % of control

O=C1c2ccccc2-c2cc(Br)cc(Br)c21
inactive: [22] 93 % of control | [23] 98 % of control | [24] 98 % of control

COCc1ccc(C(=O)O)cc1
inactive: dose: 100.0 mg/kg/injection, schedule: Q01DX009 (ip), vehicle: gum acacia 101 % of control | dose: 200.0 mg/kg/injection, schedule: Q01DX009 (ip), vehicle: gum acacia 97 % of control | dose: 400.0 mg/kg/injection, schedule: Q01DX009 (ip), vehicle: gum acacia 101 % of control

CS(=O)(=O)OCCN(CCOS(C)(=O)=O)c1ccc(C=Nc2cccc(Cl)c2)c(Cl)c1
inactive: [13] 106 % of control | [16] 105 % of control | [18] 113 % of control

Source: PubChem BioAssay AID248 (DTP/NCI, 2004)
